Assay results taken from patent US20180055049A1, “USE OF PRO-[…] UK-2A FOR CONTROL OF BROWN ROT DIESEASE ON STONE AND POME FRUITS” (Dow AgroSciences LLC, priority 2016, published 2018).

Tests used:
Assay type in all cases: in vivo
Monilinia spp. (MONILA) [1] = assay: Field trial 1: brown rot of flowers and branches, apricot, northeastern Italy; conditions: for % Incidence, Branches: Trial 1, branches, 24 DAA, untreated 23.50; for % Incidence, Flowers: Trial 1, flowers, 8 DAA, untreated 21.00
Method: (§1) A fungicidal treatment containing Compound I for use against brown rot diseases on stone fruits was carried out in three field trials. The first two trials were carried out in Italy and France in order to investigate the effectiveness of Compound 1 against brown rot of flowers. These two trials were designed as randomized complete block with four replications (plots respectively of 35 and 50 m^2) and were carried out in typical areas for apricot and peaches cultivation, respectively, in northeastern Italy and southern France. Trials were conducted under EPPO PP1/38(2), PP1/135(3), PP1/152(3), PP1/181(3), PP1/239(1) and related guidelines. Trials were sprayed three times during the flowering period, using a backpack mist blower equipment calibrated to apply product respectively at 600 and 700 L/ha of water volume. […] MONILA disease was evaluated on flowers on a sample of ten pre-marked branches per tree, aged one year. The number of infected flowers was counted and consequently the percent incidence was then calculated. A second assessment was then made on 50 small branches randomly selected in the two 2 central trees for each plot, counting the number of diseased small branches and then the % incidence was calculated.

Monilinia spp. (MONILA) [2] = assay: Field trial 2: brown rot of flowers and branches, peaches, southern France; conditions: for % Incidence, Branches: Trial 2, branches, 22 DAA, untreated 30.60; for % Incidence, Flowers: Trial 2, flowers, 8 DAA, untreated 55.30
Method: as §1

[3] = system: Monilinia fructicola (MONIFC); assay: Field trial 3: brown rot of fruits, peach, Ravenna, northeastern Italy; conditions: Trial 3, fruits, 200 g ai/Ha
Method: A third trial was conducted in Italy in order to investigate the effectiveness of Compound I against brown rot of fruits. This trial was designed as randomized complete block with four replications and plots of 49.5 m^2 and was carried out in a typical area for peach cultivation in the province of Ravenna in northeastern Italy. The trial was conducted under EPPO PP1/222(1), PP1/135(2), PP1/152(3), PP1/181(3), PP1/225(1), PP1/239(1) and related guidelines. Products were sprayed twice during fruit ripening respectively at BBCH 79-81 and 81-85 of plant grow stage using a self-propelled air-assisted multi plot sprayer designed for efficacy trials with four independent series of 8 nozzles (Albutz, ATR 80 Yellow) calibrated to apply a spray volume of 1,000 L/ha at a pressure of 450 KPa according to the orchard canopy.
The pathogen was certificated to be Monilinia fructicola (MONIFC) by means of an immunoassay followed by a PCR assay on material collected (mummies) from the trial. The brown rot damage at harvest was evaluated on l00 randomly picked fruits per plot. Visual healthy samples of 60 fruits per plot were placed in alveolus plates and kept for 5 days in cold storage. Afterwards the samples were maintained for 14 days at about 20° C. (shelf life period). Several assessments were made in order to check the development of disease during the shelf life simulation. […]

`COc1ccnc(C(=O)N[C@H]2COC(=O)[C@H](Cc3ccccc3)[C@@H](OC(=O)C(C)C)[C@H](C)OC2=O)c1OCOC(=O)C(C)C` [Compound I] was tested, and the “% Incidence, Branches” value (Monilinia spp. (MONILA) [1]; 75 g ai/Ha) was 22.50%, the “% Incidence, Branches” value (Monilinia spp. (MONILA) [1]; 100 g ai/Ha) was 24.50% and the “% Incidence, Branches” value (Monilinia spp. (MONILA) [1]; 150 g ai/Ha) was 11.00%. The “% Incidence, Flowers” value (Monilinia spp. (MONILA) [1]; 75 g ai/Ha) was 11.25%, the “% Incidence, Flowers” value (Monilinia spp. (MONILA) [1]; 100 g ai/Ha) was 4.75% and the “% Incidence, Flowers” value (Monilinia spp. (MONILA) [1]; 150 g ai/Ha) was 3.25%. For the same molecule, the “% Incidence, Branches” value (Monilinia spp. (MONILA) [2]; 75 g ai/Ha) was 11.98%, the “% Incidence, Branches” value (Monilinia spp. (MONILA) [2]; 100 g ai/Ha) was 9.93% and the “% Incidence, Branches” value (Monilinia spp. (MONILA) [2]; 150 g ai/Ha) was 4.20%. For the same molecule, the “% Incidence, Flowers” value (Monilinia spp. (MONILA) [2]; 75 g ai/Ha) was 24.00%, the “% Incidence, Flowers” value (Monilinia spp. (MONILA) [2]; 100 g ai/Ha) was 16.70% and the “% Incidence, Flowers” value (Monilinia spp. (MONILA) [2]; 150 g ai/Ha) was 15.40%. The “% Incidence, Fruits” value ([3]; 7 DAA, untreated 31.3) was 15.0% and the “% Incidence, Fruits” value ([3]; 26 DAA, untreated 32.5) was 16.8%.
